EP4759807A1, “PROTEOLYSIS TARGETING CHIMERA COMPOUND FOR DEGRADING IRAK4 AND USE THEREOF” (Shenzhen Zhongge Biological Technology Co., Ltd., priority 2023, dated 2025)

How the values were obtained:
IRAK4 [1] = biological target: T1, IRAK4 (Homo sapiens, UniProt Q9NWZ3); assay: WB detection of proteolysis (Western Blot, THP-1 cells); format: cell-based
T1 sequence (Q9NWZ3 1-460): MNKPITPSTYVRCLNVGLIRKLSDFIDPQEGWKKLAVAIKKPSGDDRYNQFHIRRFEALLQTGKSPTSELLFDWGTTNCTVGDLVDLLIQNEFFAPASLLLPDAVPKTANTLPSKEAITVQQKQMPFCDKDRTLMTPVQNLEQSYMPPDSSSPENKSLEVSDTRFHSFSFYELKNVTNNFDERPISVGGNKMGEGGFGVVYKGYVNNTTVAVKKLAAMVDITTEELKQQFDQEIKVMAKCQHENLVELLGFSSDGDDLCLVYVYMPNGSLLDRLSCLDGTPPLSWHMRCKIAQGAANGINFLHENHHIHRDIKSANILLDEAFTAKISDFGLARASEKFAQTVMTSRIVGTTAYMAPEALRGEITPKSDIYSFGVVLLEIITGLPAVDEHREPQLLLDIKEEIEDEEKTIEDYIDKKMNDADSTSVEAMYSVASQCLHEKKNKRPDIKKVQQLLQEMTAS
Experimental: The degradation level of IRAK4 in THP-1 cells was detected by Western Blot technology. […] 1000X gradient dilution stock of the compound was prepared, with the highest concentration set at 300 µM. The dilution was carried out using DMSO in a 1:3 dilution factor, yielding a total of 9 concentrations. 1000X gradient dilutions of the compound were added to a 12-well plate, with 1 µL per well. Incubation was performed under conditions of 37°C and 5% CO2 for 24 h, and the cells were collected into 2 mL of centrifuge tubes and centrifuged at 5000 rpm for 5 min, and the supernatant was removed. 100 µL of RIPA lysis buffer (Beyotime, P0013C) was added and mixed uniformly, then the cells were lysed on ice for 10 min, centrifuged at 4°C at 14000 rpm for 10 min, and the supernatant was collected. Protein content was determined with BCA (Solarbio, PC0020-10*50T). 75 µL of the supernatant was taken, and 25 µL of NuPAGE LDS Sample Buffer (4X) (Thermo B0007) was added to each tube (5% β-mercaptoethanol was added before use) to prepare samples, and the samples were boiled in a metal bath at 100°C for 5 min. […] 1x NuPAGE™ MOPS SDS electrophoresis buffer (20X) (Invitrogen, NP0001) was prepared, and the electrophoresis instrument was set to a constant current of 300 mA for 100 min, and the protein was transferred to a PVDF membrane (Millipore, IPVH00010). […] The membrane was washed three times with 1x TBST (Elabscience E-BC-R335) the next day, each time for 5 min. […] The membrane was washed three times with TBST, each time for 5 min. The Odyssey imaging system Li-cor Odyssey CLx was used to detect signals and analyze data. GraphPad (Prism 9.3) software was used to perform analysis for data, and non-linear fitting (non-liner inhibitor (Bell-shaped)) and four parameters (4 parameter) were used, and the parameters was as follows: Span1 = Plateau1−Dip [formula] Span2 = Plateau2−Dip [formula] Section1 = Span1/(1+10^(∧)((LogEC50_1−X)*nH1)) [formula] Section2 = Span2/(1+10^(∧)((X−LogEC50_2)*nH2)) [formula]
The equation was as follows: Y=Dip+Section1+Section2.

IRAK4 [2] = biological target: T1, IRAK4; assay: Hibit fluorescence detection of proteolysis (IRAK4-HiBiT in HEK293T cells); format: cell-based; set-up: host or cells: HEK293T (ATCC); conditions: for Dmax: HEK-293T; for DC50: IRAK4-HiBiT, HEK293T cells, 24 h
How it was run: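 Degradation read-out: luminescence from lytic HiBiT detection (15 min, room temperature) after 24 h compound exposure (37 °C, 5% CO2) of HEK293T cells transiently expressing IRAK4 fused to a HiBiT tag. Data fitted to a bell-shaped four-parameter model giving two EC50 values.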

[3] = Western Blot, THP-1 cells, 24 h, read-out: DC50
[4] = Western Blot, THP-1 cells, 24 h, read-out: Dmax

Compound | DC50 (IRAK4 [1]; [3]) | Dmax (IRAK4 [1]; [4]) | Dmax (IRAK4 [2]) | DC50 (IRAK4 [2]) | Dmax (IRAK4 [1]; THP-1) | DC50 (IRAK4 [1]; Western Blot, THP-1 cells, 24 h)
Cn1c(=O)n(C2CCC(=O)NC2=O)c2cccc(N3CCC4(CC3)CN(C[C@H]3CC[C@H](n5cc(-n6cc(-c7ccc8cc(C(N)=O)cnn78)nn6)c(C(F)F)n5)CC3)C4)c21 (stereo partly drawn) [Example 64] | > 30 nM | 60 to 70% | > 80% | < 0.5 nM | – | –
Cn1c(=O)n(C2CCC(=O)NC2=O)c2cccc(C3CCN(C[C@H]4CC[C@H](n5cc(-n6cc(-c7ccc8cc(C(N)=O)cnn78)nn6)c(C(F)F)n5)CC4)CC3)c21 (stereo partly drawn) [Example 84, 7-(1-(3-(difluoromethyl)-1-((1r,4r)-4-((4-(1-(2,6-dioxopiperidin-3-yl)-3-methyl-2-oxo-2,3-dihydro-1H-benzo[d]imidazol-4-yl)piperidin-1-yl)methyl)cyclohexyl)-1H-pyrazol-4-yl)-1H-1,2,3-triazol-4-yl)pyrrolo[1,2-b]pyridazine-3-carboxamide] | < 10 nM | < 60% | > 80% | < 0.5 nM | – | –
Cn1c(=O)n(C2CCC(=O)NC2=O)c2cccc(N3CCC4(CCN(C[C@H]5CC[C@H](n6cc(-n7cc(-c8ccc9cc(C(N)=O)cnn89)nn7)c(C(F)F)n6)CC5)CC4)CC3)c21 (stereo partly drawn) [Example 85, 7-(1-(3-(difluoromethyl)-1-((1r,4r)-4-((9-(1-(2,6-dioxopiperidin-3-yl)-3-methyl-2-oxo-2,3-dihydro-1H-benzo[d]imidazol-4-yl)-3,9-diazaspiro[5.5]undecan-3-yl)methyl)cyclohexyl)-1H-pyrazol-4-yl)-1H-1,2,3-triazol-4-yl)pyrrolo[1,2-b]pyridazine-3-carboxamide] | < 10 nM | > 70% | > 80% | < 0.5 nM | – | –
C[C@H]1CN(c2cccc3c2n(C)c(=O)n3C2CCC(=O)NC2=O)CCN1C[C@H]1CC[C@H](n2cc(-n3cc(-c4ccc5cc(C(N)=O)cnn45)nn3)c(C(F)F)n2)CC1 (stereo partly drawn) [Example 96] | < 10 nM | > 70% | > 80% | < 0.5 nM | – | –
Cn1c(=O)n(C2CCC(=O)NC2=O)c2cccc(N3CCC4(CCN(C[C@H]5CC[C@H](n6cc(-n7cc(-n8ccc9cc(C(N)=O)cnc98)nn7)c(C(F)F)n6)CC5)C4)CC3)c21 (stereo partly drawn) [Example 97, 1-(1-(3-(difluoromethyl)-1-((1r,4r)-4-((8-(1-(2,6-dioxopiperidin-3-yl)-3-methyl-2-oxo-3,3-dihydro-1H-benzo[d]imidazol-4-yl)-2,8-diazaspiro[4.5]dec-2-yl)methyl)cyclohexyl)-1H-pyrazol-4-yl)-1H-1-1,2,3-triazolyl)-1H-pyrrolo[2,3-b]pyridine-5-carboxamide] | – | – | > 80% | < 0.5 nM | > 70% | < 10 nM
Cn1c(=O)n(C2CCC(=O)NC2=O)c2cccc(N3CCC(N4CCN(C[C@H]5CC[C@H](n6cc(-n7cc(-n8ccc9cc(C(N)=O)cnc98)nn7)c(C(F)F)n6)CC5)CC4)CC3)c21 (stereo partly drawn) [Example 98, 1-(1-(3-(difluoromethyl)-1-((1r,4r)-4-((4-(1-(2-(2,6-dioxopiperidin-3-yl)-3-methyl-2-oxo-3,3-dihydro-1H-benzo[d]imidazol-4-yl)piperidin-4-yl)piperazin-1-yl)methyl)cyclohexyl)-1H-pyrazol-4-yl)-1H-1-1,2,3-triazole)-1H-pyrrolo[2,3-b]pyridine-5-carboxamide] | < 10 nM | > 70% | > 80% | < 0.5 nM | – | –
Cn1c(=O)n(C2CCC(=O)NC2=O)c2cccc(N3CCC4(CCN(C[C@H]5CC[C@H](n6cc(-n7cc(-n8ccc9cc(C(N)=O)cnc98)nn7)c(C(F)F)n6)CC5)CC4)CC3)c21 (stereo partly drawn) [Example 99] | 10 to 30 nM | < 60% | > 80% | < 0.5 nM | – | –
Cn1c(=O)n(C2CCC(=O)NC2=O)c2cccc(N[C@H]3CC[C@H](N(C)C[C@H]4CC[C@H](n5cc(-n6cc(-n7ccc8cc(C(N)=O)cnc87)nn6)c(C(F)F)n5)CC4)CC3)c21 (stereo partly drawn) [Example 102] | 10 to 30 nM | < 60% | > 80% | < 0.5 nM | – | –
Cn1c(=O)n(C2CCC(=O)NC2=O)c2cccc(N3CCC4(CCN(C[C@H]5CC[C@H](n6cc(-n7cc(-n8ccc9cc(C(N)=O)cnc98)nn7)c(C(F)F)n6)CC5)CC4)C3)c21 (stereo partly drawn) [Example 103, 1-(1-(3-(difluoromethyl)-1-((1r,4r)-4-(2-(1-(2,6-dioxopiperidin-3-yl)-3-methyl-2-oxo-2,3-dihydro-1H-benzo[d]imidazol-4-yl)-2,8-diazaspiro[4.5]dec-8-yl)methyl)cyclohexyl)-1H-pyrazol-4-yl)-1H-1,2,3-triazol-4-yl] | < 10 nM | < 60% | > 80% | < 0.5 nM | – | –
Cn1c(=O)n(C2CCC(=O)NC2=O)c2cccc(N3CCC4(CCN(C[C@H]5CC[C@H](n6cc(-n7cc(-c8cnn9ccc(NCC%10CC%10)nc89)nn7)c(C(F)F)n6)CC5)CC4)CC3)c21 (stereo partly drawn) [Example 108] | < 10 nM | > 70% | > 80% | < 0.5 nM | – | –
Cn1c(=O)n(C2CCC(=O)NC2=O)c2cccc(N3CCC4(CCN(C[C@H]5CC[C@H](n6cc(-n7cc(-c8cnn9ccc(NCC%10CC%10)nc89)nn7)c(C(F)F)n6)CC5)C4)CC3)c21 (stereo partly drawn) [Example 113] | > 30 nM | 60 to 70% | > 80% | < 0.5 nM | – | –
Cn1c(=O)n(C2CCC(=O)NC2=O)c2cccc(N3CCN(C[C@H]4CC[C@H](n5cc(-n6cc(-c7cnn8ccc(N9CCC[C@H](N)C9)nc78)nn6)c(C(F)F)n5)CC4)CC3)c21 (stereo partly drawn) [Example 115] | < 10 nM | > 70% | > 80% | < 0.5 nM | – | –
Cn1c(=O)n(C2CCC(=O)NC2=O)c2cccc(N3CCC4(CCN(C[C@H]5CC[C@H](n6cc(-n7cc(-c8cnn9ccc(N%10CCC[C@H](N)C%10)nc89)nn7)c(C(F)F)n6)CC5)CC4)C3)c21 (stereo partly drawn) [Example 116] | 10 to 30 nM | 60 to 70% | > 80% | 0.5 to 1 nM | – | –
Cn1c(=O)n(C2CCC(=O)NC2=O)c2cccc(N[C@H]3CC[C@H](N(C)C[C@H]4CC[C@H](n5cc(-n6cc(-c7cnn8ccc(N9CCC[C@H](N)C9)nc78)nn6)c(C(F)F)n5)CC4)CC3)c21 (stereo partly drawn) [Example 118] | 10 to 30 nM | > 70% | > 80% | < 0.5 nM | – | –
Cn1c(=O)n(C2CCC(=O)NC2=O)c2cccc(N3CCC4(CCN(C[C@H]5CC[C@H](n6cc(-n7cc(-c8cnn9ccc(N%10CCC[C@H](N)C%10)nc89)nn7)c(C(F)F)n6)CC5)C4)CC3)c21 (stereo partly drawn) [Example 119] | 10 to 30 nM | > 70% | > 80% | 0.5 to 1 nM | – | –
Cn1c(=O)n(C2CCC(=O)NC2=O)c2cccc(N3CCC4(CCN(C[C@H]5CC[C@H](n6cc(-n7cc(-c8cnn9ccc(N%10CCC[C@H](N)C%10)nc89)nn7)c(C(F)F)n6)CC5)CC4)CC3)c21 (stereo partly drawn) [Example 120] | < 10 nM | > 70% | > 80% | 0.5 to 1 nM | – | –
Cn1c(=O)n(C2CCC(=O)NC2=O)c2cccc(N3CCC(N4CCN(C[C@H]5CC[C@H](n6cc(-n7cc(-c8cnn9ccc(N[C@H]%10CCCC[C@H]%10O)nc89)nn7)c(C(F)F)n6)CC5)CC4)CC3)c21 (stereo partly drawn) [Example 122] | < 10 nM | > 70% | > 80% | < 0.5 nM | – | –
Cn1c(=O)n(C2CCC(=O)NC2=O)c2cccc(N3CCC4(CCN(C[C@H]5CC[C@H](n6cc(-n7cc(-c8cnn9ccc(N%10CCC(C)(O)CC%10)nc89)nn7)c(C(F)F)n6)CC5)CC4)C3)c21 (stereo partly drawn) [Example 123] | < 10 nM | < 60% | > 80% | < 0.5 nM | – | –
